Data on twelve molecules can be found in patent publication US10947252B2, “Inhibitors of KEAP1-Nrf2 protein-protein interaction” (Janssen Pharmaceutica NV, priority 2018, dated 2021).

For assay [1], the system named is Glo-Response ARE-luc2P HEK293 cell line. Briefly: ARE luciferase reporter cell-based assay.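 Also: luciferase signal tracks Nrf2 activation of the ARE once compounds disrupt KEAP1-Nrf2 binding, read with One-Glo reagent, DMSO serving as low control.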 As to conditions: average of results obtained.
The target of assay [2] is Kelch domain of human KEAP1 (321-624 aa) (Homo sapiens (Human), UniProt Q14145). The assay is described as follows: KEAP1 KELCH ThermoFluor binding assay.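 Also: Ligand-induced melting temperature shift of E. coli-expressed KEAP1 Kelch protein, Kd estimated from concentration-response curves of ΔTm.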 As to conditions: KEAP Kelch […], 1,8-ANS, pH 7.0, average of results obtained, read-out: Tf Kd.

Some results are limits rather than exact numbers.

Chain of Kelch domain of human KEAP1 (321-624 aa) (Q14145 321-624): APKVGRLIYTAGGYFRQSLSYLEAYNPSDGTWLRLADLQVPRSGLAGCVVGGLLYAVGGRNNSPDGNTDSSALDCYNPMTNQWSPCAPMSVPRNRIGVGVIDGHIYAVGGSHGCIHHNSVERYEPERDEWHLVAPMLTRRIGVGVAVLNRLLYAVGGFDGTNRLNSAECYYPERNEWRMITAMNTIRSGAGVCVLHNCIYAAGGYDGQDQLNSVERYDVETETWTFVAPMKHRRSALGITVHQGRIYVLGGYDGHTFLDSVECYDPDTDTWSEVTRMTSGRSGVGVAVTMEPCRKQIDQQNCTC

Usually EC50 stands for the concentration needed to bring the measured effect to its halfway point. As a reminder, the Kd is a measure of binding affinity in units of concentration. Molecule `Cc1ccc([C@H](c2ccn3c(C(F)(F)F)nnc3c2C)C(C)(C)C(=O)O)cc1CN1C[C@]2(CCOC2)Oc2ncccc2S1(=O)=O` (single isomer, unassigned) [Example 385, (*R)-3-(3-(((*S)-1′,1′-Dioxido-4,5-dihydro-2H-spiro[furan-3,4′-pyrido[2,3-b][1,4,5]oxathiazepin]-2′(3′H)-yl)methyl)-4-methylphenyl)-2,2-dimethyl-3-(8-methyl-3-(trifluoromethyl)-[1,2,4]triazolo[4,3-a]pyridin-7-yl)propanoic Acid] had an EC50 in assay [1] (Homo sapiens, HEK293, 24 h) of 1.8 nM. Moreover, the Kd in assay [2] was less than 1 nM.
The corresponding values for `Cc1ccc(C(CC(=O)O)c2ccc3c(nnn3CC3CC3)c2C)cc1CN1CC2(COC2)Oc2ccccc2S1(=O)=O` (stereo not drawn) [Example 74, 3-(1-(Cyclopropylmethyl)-4-methyl-1H-benzo[d][1,2,3]triazol-5-yl)-3-(3-((1′,1′-dioxidospiro[benzo[b][1,4,5]oxathiazepin-4,3′-oxetan]-2,(3H)-yl)methyl)-4-methylphenyl)propanoic Acid] are 24 nM and less than 1 nM.
For `Cc1ccc([C@H](c2ccn3c(C(F)(F)F)nnc3c2C)C(C)(C)C(=O)O)cc1CN1CC2(CCOCC2)Oc2nc(N[C@@H](C)CN3CCCC3)c(C)cc2S1(=O)=O` (single isomer, unassigned) [Example 367, (*R)-2,2-Dimethyl-3-(4-methyl-3-((8′-methyl-1′,1′-dioxido-7′-(((S)-1-(pyrrolidine-1-yl)propan-2-yl)amino)-2,3,5,6-tetrahydrospiro[pyran-4,4′-pyrido[2,3-b][1,4,5]oxathiazepin]-2′(3′H)-yl)methyl)phenyl)-3-(8-methyl-3-(trifluoromethyl)-[1,2,4]triazolo[4,3-a]pyridine-7-yl)propanoic Acid], in that order: 78.6 nM and less than 1 nM.
Consider `Cc1ccc([C@H](CC(=O)O)c2ccc3c(nnn3C)c2C(F)F)cc1CN1CC2CCCN2c2ncccc2S1(=O)=O` (single isomer, unassigned) [Example 73, (*R) 3-(4-(Difluoromethyl-1-methyl-1H-benzo[d][1,2,3]triazol-5-yl)-3-(3-(((R-5,5-dioxido-7a,8,9,10-tetrahydropyridi[2,3-f]pyrrolo[2,1-d][1,2,5]thiadiazepin-6(7H)-yl)methyl)-4-methylphenyl)propanoic Acid], for which, in assay [1] (24 hours), the midpoint of the response, the EC50, lay at 600 nM. Moreover, the Kd in assay [2] turned out to be 3 nM.
As for `Cc1cnc2c(c1)S(=O)(=O)N(Cc1cc(C(c3ccc4c(nnn4C4CC4)c3C)C(C)(C)C(=O)O)cnc1C)CC1(CC1)O2` (racemic) [Example 394, (R/S)-3-(1-Cyclopropyl-4-methyl-1H-benzo[d][1,2,3]triazol-5-yl)-2,2-dimethyl-3-(6-methyl-5-((8′-methyl-1′,1′-dioxidospiro[cyclopropane-1,4′-pyrido[2,3-b][1,4,5]oxathiazepin]-2′(3′H)-yl)methyl)pyridin-3-yl)propanoic Acid], in assay [1] (Homo sapiens, HEK293, 24 h), a half-maximal effect (EC50) was put at 40.1 nM. Moreover, the Kd in assay [2] was less than 1 nM.
The corresponding values for `Cc1c(C(CC(=O)O)c2ccc(Cl)c(CN3CC4(COC4)Oc4ncccc4S3(=O)=O)c2)ccn2c(C(F)(F)F)nnc12` (stereo not drawn) [Example 86, 3-(4-Chloro-3-((1′,1′-dioxoidospiro[oxetane-3,4′-pyrido[2,3-b][1,4,5]oxathiazepin]-2′(3′H)-yl)methyl)phenyl)-3-(8-methyl-3-(trifluoromethyl)-[1,2,4]triazolo[4,3-a]pyridine-7-yl)propanoic Acid] are 6240 nM and 2.4 nM.
Consider `Cc1ccc([C@@H](CC(=O)O)c2cc(OC3CC3)c3c(c2)nnn3C)cc1CN1C[C@H]2CCCN2c2ncccc2S1(=O)=O` (single isomer, unassigned) [Example 6, (*R)-3-(7-Cyclopropoxy-1-methyl-1H-benzo[d][1,2,3]triazol-5-yl)-3-(3-(((R)-5,5-dioxido-7a,8,9,10-tetrahydropyrido[2,3-f]pyrrolo[2,1-d][1,2,5]thiadiazepin-6(7H)-yl)methyl)-4-methylphenyl)propanoic Acid], for which the 50% effective concentration (EC50) in assay [1] (Homo sapiens, HEK293, 24 h) came to 42 nM. Moreover, the Kd in assay [2] worked out at 0.089 nM.
The corresponding values for `Cc1ccc([C@@H](CC(=O)O)c2ccn3c(C(F)F)nnc3c2C)cc1CN1CC2(CCOCC2)Oc2ncc(F)cc2S1(=O)=O` (single isomer, unassigned) [Example 534, (*R)-3-(3-(Difluoromethyl)-8-methyl-[1,2,4]triazolo[4,3-a]pyridin-7-yl)-3-(3-((8′-fluoro-1′,1′-dioxido-2,3,5,6-tetrahydrospiro[pyran-4,4′-pyrido[2,3-b][1,4,5]oxathiazepin]-2′(3′H)-yl)methyl)-4-methylphenyl)propanoic Acid] are 99.2 nM and less than 1 nM.
For `Cc1ccc(C(CC(=O)O)c2ccn3c(C(F)(F)F)nnc3c2C)cc1CN1CC2(COC2)Oc2ccccc2S1(=O)=O` (stereo not drawn) [Example 287, 3-(3-((1,1-Dioxidospiro[benzo[b][1,4,5]oxathiazepine-4,3′-oxetan]-2(3H)-yl)methyl)-4-methylphenyl)-3-(8-methyl-3-(trifluoromethyl)-[1,2,4]triazolo[4,3-a]pyridin-7-yl)propanoic Acid], in that order: 28.1 nM and less than 1 nM.
In assay [1] (Homo sapiens, HEK293, 24 h), `Cc1ccc([C@@H](CC(=O)O)c2ccn3c(C(F)(F)F)nnc3c2C)cc1CN1C[C@H]2CCN2c2ncccc2S1(=O)=O` (single isomer, unassigned) [Example 295, (*R)-3-(3-(((*R)-5,5-Dioxido-7,7a,8,9-tetrahydro-6H-azeto[2,1-d]pyrido[2,3-f][1,2,5]thiadiazepin-6-yl)methyl)-4-methylphenyl)-3-(8-methyl-3-(trifluoromethyl)-[1,2,4]triazolo[4,3-a]pyridin-7-yl)propanoic Acid] showed an EC50 of 2090 nM. In addition, the Kd in assay [2] amounted to 8.07 nM.
As for `Cc1ccc([C@@H](CC(=O)O)c2ccn3c(C(F)F)nnc3c2C)cc1CN1C[C@H]2COCCN2c2ncccc2S1(=O)=O` (single isomer, unassigned) [Example 462, (*R)-3-(3-(Difluoromethyl)-8-methyl-[1,2,4]triazolo[4,3-a]pyridin-7-yl)-3-(3-(((*S)-5,5-dioxido-7a,8,10,11-tetrahydro-[1,4]oxazino[3,4-d]pyrido[2,3-f][1,2,5]thiadiazepin-6(7H)-yl)methyl)-4-methylphenyl)propanoic Acid], in assay [1] (Homo sapiens, HEK293, 24 h), the EC50 came to 2930 nM. Besides, the Kd in assay [2] was 13.7 nM.
The corresponding values for `Cc1cnc2c(c1)S(=O)(=O)N(Cc1cc(C(CC(=O)O)c3ccn4c(C(F)F)nnc4c3C)ccc1C)CC1(CC1)O2` (stereo not drawn) [Example 535, 3-(3-(Difluoromethyl)-8-methyl-[1,2,4]triazolo[4,3-a]pyridin-7-yl)-3-(4-methyl-3-((8′-methyl-1′,1′-dioxidospiro[cyclopropane-1,4′-pyrido[2,3-b][1,4,5]oxathiazepin]-2′(3′H)-yl)methyl)phenyl)propanoic Acid] are 146 nM and less than 1 nM.
